Experimental findings from US20100160356A1, “NOVEL CYCLOBUTYL COMPOUNDS AS KINASE INHIBITORS” (priority 2006, published 2010) are described below.

Data set [1] addresses T1, insulin receptor (InsR) (Homo sapiens, UniProt P06213).
T1 construct: endogenous in cells; host or cells: HepG2
Put plainly: Inhibition of InsR (ELISA assay), insulin-stimulated autophosphorylation in cells. Particulars: human cells stimulated with insulin. The class given is cell-based. As for the experimental part:
Cultivated human cells which express the insulin receptor (InsR) (for example HepG2) are stimulated using human insulin, the natural ligand of InsR. The stimulation induces autophosphorylation of tyrosine residues in the cytoplasmatic InsR domain, which triggers signal transduction cascades, which initiate various biological reactions of the cells. The amount of phosphorylated InsR is determined by a receptor-specific capture ELISA or an analogous LUMINEX assay. The InsR from cell lysates is bound to a 96-well ELISA plate or LUMINEX beads by means of a specific antibody (“capturing”), and the tyrosine phosphorylation is detected using a biotin-labelled anti-phosphotyrosine antibody and a streptavidin-peroxidase conjugate by a chemiluminescence method or by means of a fluorescence-labelled anti-phosphotyrosine antibody. For determination of the activity of kinase inhibitors, cells are pretreated with increasing concentrations of these compounds for 45 min and subsequently stimulated using insulin for 5 min. As internal control, the biological activity of the ligand insulin is checked, and a concentration series of a reference inhibitor is measured.

For orientation: melting point means the temperature of the solid-liquid transition. In general, pIC50 refers to −log10 of the IC50, conventionally taken in molar units. High values mean a small IC50, low ones a large IC50.

pIC50: −log10 of the molar value.

T1 sequence (P06213 28-1382): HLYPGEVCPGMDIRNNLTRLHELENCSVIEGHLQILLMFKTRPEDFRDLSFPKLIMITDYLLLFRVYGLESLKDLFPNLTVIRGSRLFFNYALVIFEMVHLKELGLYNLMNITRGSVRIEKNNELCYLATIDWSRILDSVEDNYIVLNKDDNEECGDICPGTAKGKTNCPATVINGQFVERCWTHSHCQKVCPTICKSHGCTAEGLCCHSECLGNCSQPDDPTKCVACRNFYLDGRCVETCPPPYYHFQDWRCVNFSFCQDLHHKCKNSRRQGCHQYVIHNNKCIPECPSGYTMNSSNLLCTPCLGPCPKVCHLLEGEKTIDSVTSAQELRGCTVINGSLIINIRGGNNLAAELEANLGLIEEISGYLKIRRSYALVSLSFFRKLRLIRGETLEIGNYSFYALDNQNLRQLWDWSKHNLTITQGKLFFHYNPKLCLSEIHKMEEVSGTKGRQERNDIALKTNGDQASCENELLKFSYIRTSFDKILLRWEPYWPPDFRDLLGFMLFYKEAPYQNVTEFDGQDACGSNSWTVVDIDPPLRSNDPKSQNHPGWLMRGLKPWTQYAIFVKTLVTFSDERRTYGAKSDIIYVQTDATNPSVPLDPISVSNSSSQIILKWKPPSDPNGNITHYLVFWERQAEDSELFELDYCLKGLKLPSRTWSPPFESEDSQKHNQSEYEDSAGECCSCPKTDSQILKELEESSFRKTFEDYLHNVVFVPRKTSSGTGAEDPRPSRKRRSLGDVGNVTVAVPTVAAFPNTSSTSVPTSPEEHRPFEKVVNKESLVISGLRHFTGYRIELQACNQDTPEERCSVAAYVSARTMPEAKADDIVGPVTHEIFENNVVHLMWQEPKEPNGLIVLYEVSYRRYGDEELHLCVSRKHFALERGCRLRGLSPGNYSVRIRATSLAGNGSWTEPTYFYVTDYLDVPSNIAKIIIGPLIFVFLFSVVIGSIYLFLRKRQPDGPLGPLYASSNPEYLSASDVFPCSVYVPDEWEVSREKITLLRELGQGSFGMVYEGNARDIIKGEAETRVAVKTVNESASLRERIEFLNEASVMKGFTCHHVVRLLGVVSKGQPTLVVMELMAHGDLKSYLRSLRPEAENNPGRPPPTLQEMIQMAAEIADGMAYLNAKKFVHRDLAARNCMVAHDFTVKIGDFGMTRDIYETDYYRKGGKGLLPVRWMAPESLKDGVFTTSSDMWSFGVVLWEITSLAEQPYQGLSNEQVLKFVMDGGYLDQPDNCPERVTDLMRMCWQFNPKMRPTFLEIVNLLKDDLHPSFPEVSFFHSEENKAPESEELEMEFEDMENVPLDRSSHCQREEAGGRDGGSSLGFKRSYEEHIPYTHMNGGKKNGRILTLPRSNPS

Turning to `Nc1ncnc2c1c(-c1cccc(O)c1)cn2C1CC(CN2CCCC2)C1` (stereo not shown) [Compound 1, 3-[4-amino-7-(3-pyrrolidin-1-ylmethylcyclobutyl)-7H-pyrrolo[2,3-d]pyrimidin-5-yl]phenol], the melting point is 193 to 194 °C. The pIC50 in data set [1] was 5.68.

In the case of `NCC1CC(n2cc(-c3ccc4[nH]ccc4c3)c3c(N)ncnc32)C1` (stereo not shown) [Compound 3, 7-(3-Aminomethylcyclobutyl)-5-(1H-indol-5-yl)-7H-pyrrolo[2,3-d]pyrimidin-4-ylamine], the melting point lay in the range of 142 to 144 °C. The same compound had a negative logarithm of the IC50 (pIC50) in data set [1] of 4.92.
